Source: US11992468B2, “Abuse-deterrent dosage forms containing esketamine” (Clexio Biosciences Ltd., priority 2019, dated 2024)
Where a name gives a salt, the structure may show the parent alone.

Test: Simulated in vitro nasal diffusion/release (vertical diffusion cell)
Conditions: pH 6.4

## CN[C@]1(c2ccccc2Cl)CCCCC1=O [Esketamine HCl powder, esketamine hydrochloride]
  recovery at 10 min: 45.1%
  recovery at 30 min: 75.9%
  recovery at 60 min: 79.2%
